The text below walks through data of US20170216252A1, “ANTI-BACTERIAL PYRUVATE KINASE MODULATOR COMPOUNDS, COMPOSITIONS, USES AND METHODS” (SIMON FRASER UNIVERSITY, priority 2014, published 2017).

Test [1] concerns A. baumannii (ATCC 19606). The experiment in a line: Broth microdilution MIC. The class given is cell-based. To be noted: Acinetobacter baumannii. As for the experimental part: (§1) The antimicrobial activities of PK inhibitor candidates were determined using the 96-well microtiter standard 2-fold serial broth microdilution method as described by CLSI (formerly NCCLS) with the various gram-positive and gram-negative bacteria species mentioned above. Bacteria from a single colony were grown, overnight in either BHI Broth (VRE), mueller hinton broth (S. aureus 29213; MRSA USA400) or L-broth (E. coli, P. aeruginosa, S. typhimuriu, K. Pneumonia and A. baumannii). […] Culture plates were incubated for 18-24 h at 37° C., and optical density at 600 nm (OD600) was measured using a Benchmark Plus™ microplate spectrophotometer (Bio-Rad™). The absorbance control values for the series containing CAMHB and inhibitor were subtracted as background from the corresponding infected wells. The MIC was defined as the lowest concentration of test compound leading to complete inhibition of cell growth in relationship to compound-free control wells as determined by optical density. […] All assays were run in triplicate (Tables 1-6) or duplicate. Experiments were replicated at least twice to verify reproducibility using the above conditions.
(§2) The antimicrobial activity of selected compounds against the gram negative bacteria Klebsiella pneumoniae, Acinetobacter baumannii, E. coli, Pseudomonas aeruginosa and Salmonella typhimurium, as well as additional gram positive bacteria, including drug-resistant strains, was tested according to the procedures provided under “General Methodologies” above.
A general note: Broth dilution looks for growth in wells or tubes with falling amounts of substance.

The next test concerns MRSA MW2 (USA400). The experiment in a line: Broth microdilution MIC. The class given is cell-based. The conditions noted are these: Staphylococcus aureus, read-out: MIC (μg/mL) G. The procedure:
as §1, §2

Another test relates to S. typhimurium (SL 1344). As to the kind of experiment: Broth microdilution MIC. It counts as cell-based. To be noted: Salmonella enterica. As for the experimental part:
as §1, §2

In a further test the test system is K. pneumoniae (C238). The experiment in a line: Broth microdilution MIC. It counts as cell-based. The conditions noted are these: Klebsiella pneumoniae, read-out: MIC (μg/mL) A. The procedure: as §1, §2
The next test has as its system P. aeruginosa (PA01). As to the kind of experiment: Broth microdilution MIC. The class given is cell-based. The conditions noted are these: Pseudomonas aeruginosa. As for the experimental part: as §1, §2
The subject of another test is VRE#2 (2010A). The experiment in a line: Broth microdilution MIC. It counts as cell-based, vancomycin-resistant Enterococcus. The conditions noted are these: Enterococcus, read-out: MIC (μg/mL) F. As for the experimental part:
as §1, §2

The test system of the next test is E. coli (DAS 1-IMP). The experiment in a line: microbe, parasite or virus in culture. It counts as cell-based, Escherichia coli. To be noted: for MIC: Escherichia coli, read-out: MIC (μg/mL) C, E. coli (DAS 1-IMP). The procedure:
as §1, §2

Another test has as its system S. aureus ATCC 29213. The experiment in a line: In vitro susceptibility, broth microdilution MIC. It counts as cell-based, Staphylococcus aureus. An outline of the steps:
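The MIC against S. aureus 29213 was determined by CLSI 2-fold serial broth microdilution in Mueller Hinton broth. Plates were incubated for 18–24 h at 37 °C and read at OD600 with background subtracted. The MIC was the lowest concentration giving complete growth inhibition versus compound-free wells.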

Another test concerns the target T1, MRSA PK (Staphylococcus aureus, UniProt Q6GG09).
T1 construct: His tag (pET-28a(+) vector) (N); made in house; host or cells: E. coli BL-21 (DE3)
As to the kind of experiment: MRSA PK activity, continuous LDH-coupled assay. It counts as biochemical, S. aureus (MRSA strain Sanger 252). A digest of the protocol: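 Purified His-tagged MRSA PK (15 nM, E. coli-expressed) started reactions run up to 5 min at 30 °C. Activity was followed continuously by LDH-coupled NADH oxidation at 340 nm, with DMSO ≤1%. IC50 came from four-parameter variable-slope fits.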

The subject of another test is S. pyogenes (ATCC700294). As to the kind of experiment: Broth microdilution MIC. It counts as cell-based. The conditions noted are these: Streptococcus pyogenes. The procedure: as §1, §2
The test system of a further test is S. aureus ATCC 29123. The experiment in a line: Neutropenic mouse Staphylococcus aureus thigh infection model. It counts as in vivo. The conditions noted are these: vancomycin control, 10 mg/kg IP at 2 and 8 h, 24 h endpoint. The procedure:
The antimicrobial activity of compound 178 against S. aureus ATCC 29123 was tested in vivo using the neutropenic mouse Staphylococcus aureus thigh infection model. […] Animals were individually monitored for adverse reactions for 30 min post-infection. […] Vancomycin was administered as a solution in PBS. The test compounds were administered as outlined in Table 12 at 2 and 8 hours post-infection and animals were individually monitored for adverse reactions for 30 min after each injection. All animals were then monitored hourly from 20 hours post infection to the endpoint (t=24 hr post infection). At the indicated timepoint, animals were sacrificed and the injected thigh collected. Quantitative enumeration of bacterial load was determined by plating serial dilutions from homogenized thigh muscles. Homogenized muscle was in a total of 2 mL volume, from which a 1 in 10 dilution was prepared (100 μL into 900 μL saline). From this a series of dilutions were prepared and plated on Mueller Hinton agar plates. […] At the end of this time colony counts were determined and the final CFU per mL calculated.

The mark [2] stands for this setting: ATCC19606, A. baumannii (ATCC 19606), read-out: MIC (μg/mL) B.
The mark [3] stands for this setting: Staphylococcus aureus, ATCC29213, S. aureus (ATCC29213), Table 9, read-out: MIC (μg/mL) H.
[4] abbreviates: Staphylococcus aureus, ATCC29213, Table 8, tested at least in duplicate, differing values all given, read-out: MIC.
Setting [5] is: Table 8, tested at least in duplicate, differing values all given.

pIC50: −log10 of the molar value. Values after ≈ are worked out from the molar mass of the structure shown. Where two headings read alike, the source gives them in different places.

T1 sequence (Q6GG09 whole entry): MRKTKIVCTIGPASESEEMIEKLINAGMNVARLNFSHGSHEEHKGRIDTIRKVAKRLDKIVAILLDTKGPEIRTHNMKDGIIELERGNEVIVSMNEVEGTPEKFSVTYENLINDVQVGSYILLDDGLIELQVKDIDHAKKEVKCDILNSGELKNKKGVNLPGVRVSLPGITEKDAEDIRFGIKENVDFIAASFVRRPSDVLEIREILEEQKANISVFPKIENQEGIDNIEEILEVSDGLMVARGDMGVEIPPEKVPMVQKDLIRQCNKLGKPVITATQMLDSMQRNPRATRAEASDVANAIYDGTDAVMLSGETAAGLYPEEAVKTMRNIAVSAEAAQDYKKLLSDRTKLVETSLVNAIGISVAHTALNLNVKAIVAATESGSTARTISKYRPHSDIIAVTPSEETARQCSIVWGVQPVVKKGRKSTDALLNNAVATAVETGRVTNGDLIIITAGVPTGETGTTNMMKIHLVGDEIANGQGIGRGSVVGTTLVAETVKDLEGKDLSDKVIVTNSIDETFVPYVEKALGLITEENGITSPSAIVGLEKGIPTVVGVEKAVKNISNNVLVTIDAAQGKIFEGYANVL

Regarding `O=C(O)c1c(/C=C/c2ccc(Cl)cc2)[nH]c2cc(Br)ccc12` [Compound 123, (E)-6-Bromo-2-(4-chlorostyryl)-1H-indole-3-carboxylic acid], the MIC is 64 µg/mL (≈ 170 µM) in test [1] (setting [2]); 32 µg/mL (≈ 85 µM) in the test on MRSA MW2 (USA400) (MRSA MW2 (USA400)); above 64 µg/mL in the test on S. typhimurium (SL 1344); 32 µg/mL (≈ 85 µM) in the test with K. pneumoniae (C238) (K. pneumoniae (C238)); above 64 µg/mL in the test with P. aeruginosa (PA01); 32 µg/mL (≈ 85 µM) in the test on VRE#2 (2010A) (VRE#2 (2010A)). In addition, the MIC with E. coli (DAS 1-IMP) worked out at 64 µg/mL (≈ 170 µM); in the test with S. aureus ATCC 29213 (setting [3]), 16 µg/mL (≈ 42.5 µM). Also, the pIC50 at MRSA PK was 6.00 to 7.00.

On to `COC(=O)c1c(/C=C/c2ccc(Cl)cc2)[nH]c2cc(Br)ccc12` [Compound 124, (E)-methyl 6-bromo-2-(4-chlorostyryl)-1H-indole-3-carboxylate], for which the MIC in [1] (setting [2]) is above 64 µg/mL; with MRSA MW2 (USA400) (MRSA MW2 (USA400)) it was 2 µg/mL (≈ 5.12 µM); against S. typhimurium (SL 1344), above 64 µg/mL; in the test on K. pneumoniae (C238) (K. pneumoniae (C238)), 2 µg/mL (≈ 5.12 µM); with P. aeruginosa (PA01) it was above 64 µg/mL; in the test on VRE#2 (2010A) (VRE#2 (2010A)) it was 8 µg/mL (≈ 20.5 µM). Besides, the MIC was above 64 µg/mL in the test with E. coli (DAS 1-IMP), 2 µg/mL (≈ 5.12 µM) in the test on S. aureus ATCC 29213 (setting [3]), 4 µg/mL (≈ 10.2 µM) with S. aureus ATCC 29213 (setting [4]) and 2 µg/mL (≈ 5.12 µM) against S. aureus ATCC 29213 (setting [5]). Moreover, on MRSA PK, the pIC50 was above 7.30.

As to `O=C(c1c(CCc2ccc(Cl)cc2)[nH]c2cc(Br)ccc12)C(F)(F)F` [Compound 167, 1-(6-Bromo-2-(4-chlorophenethyl)-1H-indol-3-yl)-2,2,2-trifluoroethanone], the MIC in [1] (setting [2]) is above 64 µg/mL; with S. typhimurium (SL 1344), above 64 µg/mL; against S. pyogenes (ATCC700294), 2 µg/mL (≈ 4.64 µM); in the test with K. pneumoniae (C238) (K. pneumoniae (C238)) it was 1 µg/mL (≈ 2.32 µM); against P. aeruginosa (PA01), above 64 µg/mL; in the test with VRE#2 (2010A) (VRE#2 (2010A)), 1 µg/mL (≈ 2.32 µM). The MIC with E. coli (DAS 1-IMP) was found to be 4 µg/mL (≈ 9.29 µM); with S. aureus ATCC 29213 (setting [3]), 1.5 µg/mL (≈ 3.48 µM); in the test with S. aureus ATCC 29213 (setting [4]) it was 2 µg/mL (≈ 4.64 µM); with S. aureus ATCC 29213 (setting [5]), 1 µg/mL (≈ 2.32 µM). In the test with E. coli (DAS 1-IMP) (E. coli (DAS 1-IMP)), the “MIC (μg/mL) C” value came to 8 µg/mL (≈ 18.6 µM). This molecule showed a negative-log IC50 (pIC50) at MRSA PK of 6.00 to 7.00.

Take `O=C(c1c(/C=C/c2ccc(Cl)cc2)[nH]c2cc(Br)ccc12)C(F)(F)F` [Compound 168, (E)-1-(6-Bromo-2-(4-chlorostyryl)-1H-indol-3-yl)-2,2,2-trifluoroethanone]: the MIC with MRSA MW2 (USA400) (MRSA MW2 (USA400)) stood at 0.5 µg/mL (≈ 1.17 µM); with VRE#2 (2010A) (VRE#2 (2010A)), 1 µg/mL (≈ 2.33 µM); in the test on S. aureus ATCC 29213 (setting [3]), 2 µg/mL (≈ 4.67 µM); in the test with S. aureus ATCC 29213 (setting [4]), 1 µg/mL (≈ 2.33 µM); against S. aureus ATCC 29213 (setting [5]), 2 µg/mL (≈ 4.67 µM). This molecule also showed a pIC50 at MRSA PK of 6.00 to 7.00.

As to `COc1cccc(OC)c1C(=O)N[C@@H]1C(=O)N2[C@@H]1SC(C)(C)[C@@H]2C(=O)O` [Methicillin, methicillin, reference compound], the MIC in test [1] (setting [2]) is above 64 µg/mL; with MRSA MW2 (USA400) (MRSA MW2 (USA400)), 32 µg/mL (≈ 84.1 µM); in the test on S. pyogenes (ATCC700294) it was 1 µg/mL (≈ 2.63 µM); with K. pneumoniae (C238) (K. pneumoniae (C238)), 4 µg/mL (≈ 10.5 µM); in the test on VRE#2 (2010A) (VRE#2 (2010A)), 64 µg/mL (≈ 168 µM); in the test with S. aureus ATCC 29213 (setting [3]), 2 µg/mL (≈ 5.26 µM).

In the case of `CN[C@H](CC(C)C)C(=O)N[C@H]1C(=O)N[C@@H](CC(N)=O)C(=O)N[C@H]2C(=O)N[C@H]3C(=O)N[C@H](C(=O)N[C@H](C(=O)O)c4cc(O)cc(O)c4-c4cc3ccc4O)[C@H](O)c3ccc(c(Cl)c3)Oc3cc2cc(c3O[C@@H]2O[C@H](CO)[C@@H](O)[C@H](O)[C@H]2O[C@H]2C[C@](C)(N)[C@H](O)[C@H](C)O2)Oc2ccc(cc2Cl)[C@H]1O` [Vancomycin, reference compound], the MIC was found to be 64 µg/mL (≈ 44.2 µM) in test [1] (ATCC19606, read-out: MIC (μg/mL) B); 1 µg/mL (≈ 0.69 µM) with MRSA MW2 (USA400); 4 µg/mL (≈ 2.76 µM) in the test with K. pneumoniae (C238); 64 µg/mL (≈ 44.2 µM) with VRE#2 (2010A) (VRE); 1 µg/mL (≈ 0.69 µM) in the test with S. aureus ATCC 29213 (Staphylococcus aureus, ATCC29213); 1 µg/mL (≈ 0.69 µM) in the test with S. aureus ATCC 29213 (Staphylococcus aureus, ATCC29213, read-out: MIC (μg/mL) H). The “median CFU/thigh” value in the test with S. aureus ATCC 29123 is recorded as 1.91×10^3 CFU/thigh.

By pIC50 is commonly meant −log10 of the IC50, conventionally taken in molar units. High values mean a small IC50, low ones a large IC50.
